Source: patent US20230055582A1, “COMPOSITIONS AND METHODS FOR TREATMENT OF INFLAMMATORY CONDITIONS AND DISEASES OF THE SKIN” (priority 2020, published 2023)
Several values for one entry are separate records, joined by “and”; a condition that tells them apart may be missing. Equal entries are not always repeated.

Experiments:
[1] = test system: IL-6; test: IL-6 in medium of poly I:C treated HaCaT cells, multiplex immunoassay; format: cell-based, human; settings: 24 h
Protocol: (§1) CBD was purchased from Sigma Israel. […] PEA was in powder form.
(§2) Samples were frozen and shipped on dry ice.
(§3) Analysis of cytokine content. Samples were shipped to Eve Technologies, Calgary (Canada) for analysis. Samples were analyzed using Human Focused 13-Plex Discovery Assay, a Multiplex immunoassay with fluorometric detection. Preliminary tests were conducted in order to determine samples dilution. The cytokines measured were granulocyte-macrophage colony-stimulating factor (GM-CSF), interferon gamma (IFNy), interleukin 1 beta (IL-1B), IL-2, IL-4, IL-5, IL-6, IL-8, IL-10, IL-12, IL-13, monocyte chemoattractant protein-1 (MCP-1) and tumor necrosis factor alpha (TNF-α).

[2] = test system: HaCaT cells; test: Cell viability, crystal violet assay, poly I:C treated HaCaT cells; settings: for Cell viability increase: vs poly I:C alone; for Cell viability: 24 h
Protocol: (§4) Cell culture. The human keratinocyte cell line HaCaT was a kind gift from Prof. Joseph Kost (Department of Chemical Engineering, Ben-Gurion University of the Negev, Israel). Cells were cultured in Dulbecco's Modified Eagle Medium (DMEM) (Biological Industries, Kibbutz Beit-Haemek, Israel) supplemented with 1% antibiotic-antimycotic (Tivan Biotech, Kfar-Saba, Israel), 1mM sodium pyruvate, and 10% fetal bovine serum (FBS) (Biological Industries), and were maintained in an incubator with 5% CO2 at 37° C.
(§5) CBD was purchased from Sigma Israel. […] PEA was in powder form. A 30 mM stock solution was made by dissolving PEA in dimethyl sulfoxide (DMSO). […] All stocks were filtered using a 0.2 μm filter before use and further diluted to the required concentration in cell medium. Vehicle (control) solutions contained the corresponding amount of DMSO (0.007%).
90,000 cells/well were plated on 12-well plates and allowed to attach at 37° C. for 24 hours. Subsequently, the wells were washed with phosphate-buffered saline (PBS) and the medium was replaced with a medium containing either vehicle (control) or poly I:C. […] The wells were then incubated for further 24 h and 50μL samples were drawn for analysis of cytokines. Samples were frozen and shipped on dry ice.
Cell viability assay. Cell viability was measured using a crystal violet assay. 90,000 cells/well were plated on 12-well plates and allowed to attach at 37° C. for 24 hours. […] 24 hours later medium was aspirated, and cells were washed twice with PBS. 500 μL of crystal violet staining solution (0.5% (w/v) crystal violet powder, 20% methanol) was added to each well, followed by incubation for 30 min at room temperature. The staining solution was discarded, the plates were washed 5 times with distilled water and dried, and 500 μL of 10% acetic acid (v/v) was added to each well. Absorbance was measured at 595 nm.

[3] = test system: GM-CSF; test: GM-CSF in medium of poly I:C treated HaCaT cells, multiplex immunoassay; format: cell-based, human; settings: 24 h
Protocol: (§6) CBD, PEA and DB. CBD was purchased from Sigma Israel. […] CBD was 3.18 mM solution in ethanol. DB was in pure liquid form. PEA was in powder form.
(§7) Procedure and administration of active compounds. […] Samples were frozen and shipped on dry ice.
as §3, with “(TNF-α). Results were calculated only for GM-CSF, IL-6, IL-8, MCP-1 and TNF-α.” for “(TNF-α).”

[4] = test system: TNF-α; test: TNF-α in medium of poly I:C treated HaCaT cells, multiplex immunoassay; format: cell-based, human; settings: 24 h
Protocol: as §6, §7
as §3, with “(TNF-α). Results were calculated only for GM-CSF, IL-6, IL-8, MCP-1 and TNF-α.” for “(TNF-α).”

[5] = test system: IL-8; test: IL-8 in medium of poly I:C treated HaCaT cells, multiplex immunoassay; format: cell-based, human; settings: 24 h
Protocol: as §1, §2, §3

[6] = test system: GM-CSF, IL-6, IL-8, MCP-1 and TNF-α; test: Five inflammatory cytokines taken together, poly I:C treated HaCaT cells; format: cell-based, human; settings: higher dose (10 μM) with poly I:C 100 μg/mL
Protocol: as §4, §5
90,000 cells/well were plated on 12-well plates and allowed to attach at 37° C. for 24 hours. […]
Analysis of cytokine content. […] Samples were analyzed using Human Focused 13-Plex Discovery Assay, a Multiplex immunoassay with fluorometric detection. […] The cytokines measured were granulocyte-macrophage colony-stimulating factor (GM-CSF), interferon gamma (IFNy), interleukin 1 beta (IL-1B), IL-2, IL-4, IL-5, IL-6, IL-8, IL-10, IL-12, IL-13, monocyte chemoattractant protein-1 (MCP-1) and tumor necrosis factor alpha (TNF-α).

[7] = test system: HaCaT cells; test: Toxicity on HaCaT cells, qualitative light-microscope assessment after 50 hours; format: cell-based, human
Protocol: as §6
Toxicity. HaCaT cells were incubated in 12 wells plates until 60-70% confluency was achieved. Subsequently, the cells were washed and incubated with medium containing PEA, DB or CBD. After 50 hours of incubation, the wells were observed under a light microscope and toxicity of the active compounds was assessed qualitatively by comparing the treated cells to controls incubated with vehicle. As concluded, under the conditions tested, PEA can be safely used in concentration of up to 50 μM, DB is non-toxic at concentrations of up to 0.01%, and CBD is non-toxic at concentration of up to 15 μM.

[8] = test system: MCP-1; test: MCP-1 in medium of poly I:C treated HaCaT cells, multiplex immunoassay; format: cell-based, human; settings: for MCP-1: 24 h
Protocol: as §6, §7
as §3, with “(TNF-α). Results were calculated only for GM-CSF, IL-6, IL-8, MCP-1 and TNF-α.” for “(TNF-α).”

[9] = CBD 3 μM with poly I:C 100 μg/mL
[10] = CBD 3 μM with poly I:C 100 μg/mL, percent of poly I:C alone
[11] = CBD 10 μM with poly I:C 100 μg/mL
[12] = CBD 10 μM with poly I:C 100 μg/mL, percent of poly I:C alone
[13] = PEA 0.2 μM with poly I:C 100 μg/mL
[14] = PEA 0.2 μM with poly I:C 100 μg/mL, percent of poly I:C alone
[15] = PEA 2 μM with poly I:C 100 μg/mL
[16] = PEA 2 μM with poly I:C 100 μg/mL, percent of poly I:C alone
[17] = poly I:C 20 μg/mL, percent of control values
[18] = poly I:C 50 μg/mL, percent of control values
[19] = poly I:C 100 μg/mL, percent of control values

In the case of C=C(C)[C@@H]1CCC(C)=C[C@H]1c1c(O)cc(CCCCC)cc1O [CBD, 2-[(1R,6R)-6-isopropenyl-3-methylcyclohex-2-en-1-yl]-5-pentylbenzene-1,3-diol], the IL-6 [1, 9] is reported as 18.95 pg/mL, the IL-6 [1, 10] is reported as 53.94% and 53.04% and the IL-6 [1, 11] is reported as 12.15 pg/mL. It also gave an IL-6 [1, 12] of 34.57%, a Cell viability increase ([2]; 3 μM with poly I:C 100 μg/mL) of 5.5% and a Cell viability increase ([2]; 10 μM with poly I:C 100 μg/mL) of 15.3%. For the same compound, the Cell viability [2, 9] was 1.328 O.D, the Cell viability [2, 10] was 105.50% and the Cell viability [2, 11] was 1.451 O.D. For the same compound, the Cell viability [2, 12] was 115.29%, the GM-CSF [3, 9] was 56.44 pg/mL and the GM-CSF [3, 10] was 73.32%. For the same compound, the GM-CSF [3, 11] was 49.55 pg/mL, the GM-CSF [3, 12] was 64.37% and the TNF-α [4, 9] was 3.277 pg/mL. It also gave a TNF-α [4, 10] of 50.64%, a TNF-α [4, 11] of 1.517 pg/mL and a TNF-α [4, 12] of 23.44%. It also gave an IL-8 [5, 9] of 643.44 pg/mL, an IL-8 [5, 10] of 70.05% and an IL-8 [5, 11] of 335.44 pg/mL. The IL-8 [5, 12] was 36.52%, the “All cytokines measured reduced” value [6] was 60-80% and the Toxicity ([7]; 5 μM, 50 hours) was “non toxic”. The Toxicity ([7]; 15 μM, 50 hours) was “non toxic”, the Toxicity ([7]; 45 μM, 50 hours) was “very toxic” and the “non-toxic (safely used) concentration” value ([7]; HaCaT cells, 50 hours, under the conditions tested) was “up to 15 μM”. The MCP-1 [8, 9] was 956.97 pg/mL and 945.97 pg/mL, the MCP-1 [8, 10] was 54.77% and the MCP-1 [8, 11] was 272.60 pg/mL. The MCP-1 [8, 12] was 15.78%.

CCCCCCCCCCCCCCCC(=O)NCCO [PEA, palmitoylethanolamide] was tested, and the IL-6 [1, 13] was 27.43 pg/mL, the IL-6 [1, 14] was 78.08% and the IL-6 [1, 15] was 27.23 pg/mL. The IL-6 [1, 16] was 77.49%, the Cell viability [2, 13] was 1.443 O.D and the Cell viability [2, 15] was 1.413 O.D. For the same compound, the Cell viability ([2]; human, 0.2 μM) was 114.66%, the Cell viability ([2]; human, 2 μM) was 112.28% and the GM-CSF [3, 13] was 60.36 pg/mL. The GM-CSF [3, 14] was 78.42%, the GM-CSF [3, 15] was 57.54 pg/mL and the GM-CSF [3, 16] was 74.75%. For the same compound, the TNF-α [4, 13] was 4.673 pg/mL, the TNF-α [4, 14] was 72.23% and the TNF-α [4, 15] was 4.470 pg/mL. It also gave a TNF-α [4, 16] of 69.09%, an IL-8 [5, 13] of 810.38 pg/mL and an IL-8 [5, 14] of 88.23%. The IL-8 [5, 15] was 773.38 pg/mL and 773.27 pg/mL, the IL-8 [5, 16] was 84.19% and the “non-toxic (safely used) concentration” value ([7]; human, 50 h) was “up to 50 μM”. It also gave an MCP-1 [8, 13] of 1345.28 pg/mL, an MCP-1 [8, 14] of 77.88% and an MCP-1 [8, 15] of 1554.20 pg/mL. It also gave an MCP-1 [8, 16] of 89.98%.

In the case of “polyinosinic:polycytidylic acid [Poly I:C]”, the IL-6 ([1]; poly I:C 20 μg/mL alone) is reported as 14.07 pg/mL, the IL-6 [1, 17] is reported as 523.57% and the IL-6 ([1]; poly I:C 50 μg/mL alone) is reported as 19.50 pg/mL. The IL-6 [1, 18] was 725.81%, the IL-6 ([1]; poly I:C 100 μg/mL alone) was 35.14 pg/mL and the IL-6 [1, 19] was 1307.82%. The Cell viability ([2]; poly I:C 20 μg/mL alone) was 1.827 O.D, the Cell viability ([2]; poly I:C 50 μg/mL alone) was 1.714 O.D and the Cell viability ([2]; poly I:C 100 μg/mL alone) was 1.259 O.D. The GM-CSF ([3]; poly I:C 20 μg/mL alone) was 53.09 pg/mL, the GM-CSF [3, 17] was 266.74% and the GM-CSF ([3]; poly I:C 50 μg/mL alone) was 62.68 pg/mL. For the same compound, the GM-CSF [3, 18] was 314.94%, the GM-CSF ([3]; poly I:C 100 μg/mL alone) was 76.98 pg/mL and the GM-CSF [3, 19] was 386.75%. For the same compound, the TNF-α ([4]; poly I:C 20 μg/mL alone) was 2.74 pg/mL, the TNF-α ([4]; poly I:C 20 μg/mL, percent of control values, control below the standard curve) was 846.39% and the TNF-α ([4]; poly I:C 50 μg/mL alone) was 3.81 pg/mL. The TNF-α ([4]; poly I:C 50 μg/mL, percent of control values, control below the standard curve) was 1179.38%, the TNF-α ([4]; poly I:C 100 μg/mL alone) was 6.47 pg/mL and 6.470 pg/mL and the TNF-α ([4]; poly I:C 100 μg/mL, percent of control values, control below the standard curve) was 2001.03%. For the same compound, the IL-8 ([5]; poly I:C 20 μg/mL alone) was 657.01 pg/mL, the IL-8 [5, 17] was 330.64% and the IL-8 ([5]; poly I:C 50 μg/mL alone) was 729.48 pg/mL. The IL-8 [5, 18] was 367.11%, the IL-8 ([5]; poly I:C 100 μg/mL alone) was 918.50 pg/mL and the IL-8 [5, 19] was 462.24%. For the same compound, the MCP-1 ([8]; poly I:C 20 μg/mL alone) was 369.54 pg/mL, the MCP-1 [8, 17] was 704.95% and the MCP-1 ([8]; poly I:C 50 μg/mL alone) was 711.76 pg/mL. It also gave an MCP-1 [8, 18] of 1357.80%, an MCP-1 ([8]; poly I:C 100 μg/mL alone) of 1727.32 pg/mL and an MCP-1 [8, 19] of 3295.15%. For the same compound, the “increase in cytokine concentration, MCP-1” value ([8]; poly I:C 100 μg/mL, vs control) was “up to 33 fold”.
